# Test results: patent publication US20230212222A1 (ANYGEN CO., LTD., priority 2020, published 2023)
# How the values were obtained:
# [1] = tested on: adipose tissue (white adipose tissue, WAT); test: lipolytic ability (secreted glycerol) in adipose tissue (WAT); type: cell-based, mice
# Procedure: (§1) In addition, lipolytic ability according to the HKFY-34 treatment by concentration (100 nM, 500 nM, […] (FIG. 84). When the signal of lipolysis is transmitted, lipid droplet glycerol and free fatty acid in adipocytes are secreted as final products and come out of the cell. At this time, the degree of lipolysis can be confirmed by quantifying the secreted glycerol. Isoproterenol, a positive control group, is an agonist of β-adrenergic receptors and mainly promotes lipolytic ability in adipocytes.
# [2] = tested on: Irs2 and Ins2; test: mRNA expression levels of Irs2 and Ins2 by RT-PCR; type: cell-based
# Procedure: The mRNA expression levels of Irs2 and Ins2, which are important factors for proliferation and differentiation of pancreatic beta cells, were analyzed through RT-PCR (FIG. 77).
# [3] = tested on: 3T3-L1 cells; test: lipolytic ability (secreted glycerol) in 3T3-L1 cells; type: cell-based
# Procedure: as §1
# [4] = tested on: pERK and pPKA in 3T3-L1 cells; test: pERK and pPKA expression by western blot in 3T3-L1 cells; type: cell-based; settings: FIG. 85
# Procedure: In order to analyze the mechanism of lipolytic ability according to the HKFY derivative treatment in 3T3-L1 cells and WAT cells, the expression levels of pERK and pPKA were analyzed (FIGS. 85 and 86).
# Specifically, protein was purified from 3T3L-1 cells (Korea Cell Line Bank) and WAT (tissue culture using mice purchased from Central Lab. Animal Inc.) treated with the HKFY derivatives, and then each antibody for pERK, ERK, pPKA, and PKA expressed in mice was used, and the expression level of each protein due to the derivatives was measured through western blot.
# [5] = target: T1, GHSR (Homo sapiens, UniProt Q92847); test: luciferase assay system, ghrelin receptor family selectivity; type: cell-based; settings: compared with intrinsic ligand, FIG. 74
# T1 construct: expressed in transfected cells
# T1 sequence (Q92847 whole entry, species assumed): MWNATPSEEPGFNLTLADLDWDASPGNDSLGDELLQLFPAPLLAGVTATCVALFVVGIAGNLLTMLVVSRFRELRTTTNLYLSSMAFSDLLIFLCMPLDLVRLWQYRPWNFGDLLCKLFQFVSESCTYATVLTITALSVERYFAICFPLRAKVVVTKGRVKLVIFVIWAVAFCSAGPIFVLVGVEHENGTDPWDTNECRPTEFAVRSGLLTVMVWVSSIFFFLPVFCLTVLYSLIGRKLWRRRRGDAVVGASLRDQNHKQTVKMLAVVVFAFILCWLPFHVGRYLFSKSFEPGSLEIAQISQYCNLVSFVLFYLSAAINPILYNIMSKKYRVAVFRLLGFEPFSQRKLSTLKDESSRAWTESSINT
# Procedure: (§2) In addition, through the activity test of the HKFY derivatives for similar receptors to GPR39, ghrelin receptor family (ghrelin receptor (GHSR), motilin receptor (MTLR), neurotensin receptor (NTSR1 & NTSR2), neuromedin U receptor (NMU1 & NMU2), TRH (thyrotropin releasing hormone) receptor (TRHR)), the selectivity and specificity for the GPR39 receptor were confirmed.
# (§3) Specifically, the degree of activity between the intrinsic ligand and HKFY-34 for each receptor was analyzed using a luciferase assay system (FIG. 74).
# [6] = target: T2, NTSR2 (Homo sapiens, UniProt O95665); test: as above; type: cell-based; settings: compared with intrinsic ligand, FIG. 74
# T2 construct: expressed in transfected cells
# T2 sequence (O95665 whole entry, species assumed): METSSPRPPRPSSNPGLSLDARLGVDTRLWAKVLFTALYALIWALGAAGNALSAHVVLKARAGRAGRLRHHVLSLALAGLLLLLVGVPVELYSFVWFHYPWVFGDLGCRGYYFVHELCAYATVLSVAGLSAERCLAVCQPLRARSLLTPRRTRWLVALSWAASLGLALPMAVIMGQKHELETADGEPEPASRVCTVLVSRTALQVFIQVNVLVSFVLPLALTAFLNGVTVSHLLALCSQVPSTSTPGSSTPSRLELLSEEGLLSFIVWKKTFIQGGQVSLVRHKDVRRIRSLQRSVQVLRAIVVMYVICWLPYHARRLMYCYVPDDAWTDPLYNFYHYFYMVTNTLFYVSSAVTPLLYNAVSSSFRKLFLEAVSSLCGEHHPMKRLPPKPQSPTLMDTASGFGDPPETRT
# Procedure: as §2, §3
# [7] = target: T3, NMU1 (Homo sapiens, UniProt Q9HB89); test: as above; type: cell-based; settings: compared with intrinsic ligand, FIG. 74
# T3 construct: expressed in transfected cells
# T3 sequence (Q9HB89 whole entry): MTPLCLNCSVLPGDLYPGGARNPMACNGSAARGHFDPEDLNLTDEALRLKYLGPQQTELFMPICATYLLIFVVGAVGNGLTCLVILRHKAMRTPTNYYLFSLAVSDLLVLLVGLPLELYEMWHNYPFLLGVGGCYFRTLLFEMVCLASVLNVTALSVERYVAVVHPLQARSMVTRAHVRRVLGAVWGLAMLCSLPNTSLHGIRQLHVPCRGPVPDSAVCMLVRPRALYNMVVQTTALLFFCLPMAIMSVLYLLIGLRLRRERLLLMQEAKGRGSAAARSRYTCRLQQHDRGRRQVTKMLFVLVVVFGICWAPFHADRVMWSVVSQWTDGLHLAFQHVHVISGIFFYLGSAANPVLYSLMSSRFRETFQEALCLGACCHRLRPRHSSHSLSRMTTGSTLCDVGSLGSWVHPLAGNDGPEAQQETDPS
# Procedure: as §2, §3
# [8] = target: T4, MTLR (Homo sapiens, UniProt O43193); test: as above; type: cell-based; settings: compared with intrinsic ligand, FIG. 74
# T4 construct: expressed in transfected cells
# T4 sequence (O43193 whole entry, species assumed): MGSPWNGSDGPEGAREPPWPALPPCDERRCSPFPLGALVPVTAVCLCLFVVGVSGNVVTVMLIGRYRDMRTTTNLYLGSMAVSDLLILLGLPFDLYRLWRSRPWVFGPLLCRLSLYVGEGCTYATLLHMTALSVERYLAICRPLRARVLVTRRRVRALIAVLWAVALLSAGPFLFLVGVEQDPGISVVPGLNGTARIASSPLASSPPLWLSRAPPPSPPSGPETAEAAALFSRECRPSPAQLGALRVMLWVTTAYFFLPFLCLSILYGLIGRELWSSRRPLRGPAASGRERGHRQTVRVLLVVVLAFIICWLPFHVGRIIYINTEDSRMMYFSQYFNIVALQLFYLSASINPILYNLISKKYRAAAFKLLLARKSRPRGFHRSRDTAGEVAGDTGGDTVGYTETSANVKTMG
# Procedure: as §2, §3
# [9] = target: T5, NTSR1 (Homo sapiens, UniProt P30989); test: as above; type: cell-based; settings: compared with intrinsic ligand, FIG. 74
# T5 construct: expressed in transfected cells
# T5 sequence (P30989 whole entry, species assumed): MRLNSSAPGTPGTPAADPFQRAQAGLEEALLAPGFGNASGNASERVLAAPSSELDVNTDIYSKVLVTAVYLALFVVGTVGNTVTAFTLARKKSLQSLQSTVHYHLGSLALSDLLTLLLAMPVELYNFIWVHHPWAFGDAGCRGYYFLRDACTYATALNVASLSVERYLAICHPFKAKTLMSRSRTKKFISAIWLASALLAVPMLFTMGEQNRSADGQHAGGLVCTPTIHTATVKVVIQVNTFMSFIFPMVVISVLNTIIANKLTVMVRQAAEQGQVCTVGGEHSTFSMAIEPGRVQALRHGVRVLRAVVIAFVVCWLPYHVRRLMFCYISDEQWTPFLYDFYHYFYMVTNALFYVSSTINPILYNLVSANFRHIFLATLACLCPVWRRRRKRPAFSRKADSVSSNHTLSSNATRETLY
# Procedure: as §2, §3
# [10] = target: T6, TRHR (Homo sapiens, UniProt P34981); test: as above; type: cell-based; settings: compared with intrinsic ligand, FIG. 74
# T6 construct: expressed in transfected cells
# T6 sequence (P34981 whole entry, species assumed): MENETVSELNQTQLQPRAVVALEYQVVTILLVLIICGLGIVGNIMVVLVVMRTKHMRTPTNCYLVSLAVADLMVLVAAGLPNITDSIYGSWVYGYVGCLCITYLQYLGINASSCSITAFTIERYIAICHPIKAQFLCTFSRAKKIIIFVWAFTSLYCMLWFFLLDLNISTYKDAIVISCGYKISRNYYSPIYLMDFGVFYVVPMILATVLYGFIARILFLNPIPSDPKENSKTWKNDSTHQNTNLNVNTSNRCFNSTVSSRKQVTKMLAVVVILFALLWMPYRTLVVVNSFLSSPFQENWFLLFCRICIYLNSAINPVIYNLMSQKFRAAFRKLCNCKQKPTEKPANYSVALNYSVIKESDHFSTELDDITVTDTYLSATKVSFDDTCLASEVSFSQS
# Procedure: as §2, §3
# [11] = target: T7, NMU2 (Homo sapiens, UniProt Q9GZQ4); test: as above; type: cell-based; settings: compared with intrinsic ligand, FIG. 74
# T7 construct: expressed in transfected cells
# T7 sequence (Q9GZQ4 whole entry, species assumed): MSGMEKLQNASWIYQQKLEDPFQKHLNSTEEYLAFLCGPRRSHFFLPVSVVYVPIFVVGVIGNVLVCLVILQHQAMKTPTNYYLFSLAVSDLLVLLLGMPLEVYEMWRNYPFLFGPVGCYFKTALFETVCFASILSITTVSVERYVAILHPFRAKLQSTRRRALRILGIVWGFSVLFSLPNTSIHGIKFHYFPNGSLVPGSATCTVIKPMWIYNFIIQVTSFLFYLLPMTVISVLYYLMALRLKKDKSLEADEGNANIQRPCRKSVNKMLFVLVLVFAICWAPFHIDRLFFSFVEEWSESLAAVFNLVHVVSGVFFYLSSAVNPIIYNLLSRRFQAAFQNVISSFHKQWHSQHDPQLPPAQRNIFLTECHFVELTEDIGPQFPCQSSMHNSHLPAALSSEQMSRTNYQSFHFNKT
# Procedure: as §2, §3
# [12] = target: T8, GPR39 (Homo sapiens, UniProt O43194); test: calcium influx assay system (aequorin) in CV-1 cells; type: cell-based; parameters: host or cells: CV-1 fibroblast cell line, lipofectamine transfection; settings: CV-1 cells transfected with human GPR39, Gαq, 6 hours
# T8 sequence (O43194 1-453): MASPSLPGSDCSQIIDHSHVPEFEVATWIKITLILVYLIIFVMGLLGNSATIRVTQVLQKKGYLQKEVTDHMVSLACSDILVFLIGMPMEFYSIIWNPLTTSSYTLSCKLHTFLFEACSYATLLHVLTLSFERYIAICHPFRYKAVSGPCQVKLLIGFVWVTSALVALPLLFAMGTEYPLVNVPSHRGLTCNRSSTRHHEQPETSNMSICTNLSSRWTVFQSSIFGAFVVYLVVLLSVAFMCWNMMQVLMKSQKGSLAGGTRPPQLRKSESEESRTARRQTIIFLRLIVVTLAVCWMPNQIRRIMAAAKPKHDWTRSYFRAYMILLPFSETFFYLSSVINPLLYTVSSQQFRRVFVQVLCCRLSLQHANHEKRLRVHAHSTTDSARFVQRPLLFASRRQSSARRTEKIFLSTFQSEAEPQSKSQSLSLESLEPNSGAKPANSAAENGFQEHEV
# [13] = tested on: HSL, ATGL and Perilipin A in 3T3-L1 cells; test: mRNA expression of lipolysis signaling factors by RT-PCR in 3T3-L1 cells; type: cell-based; settings: versus isoproterenol positive control
# Procedure: In addition, the mRNA expression levels of HSL (hormone-sensitive lipase), ATGL (adipose triglyceride lipase) and Perilipin A, which are important factors for lipolysis signaling according to HKFY-34 treatment, were analyzed through RT-PCR (FIG. 79). […] In addition, it was confirmed that the mRNA expression of all factors was enhanced due to GPR39 through GPR39 siRNA (FIGS. 81 to 83).
# [14] = tested on: db/db mice; test: blood insulin level in mouse model of diabetes mellitus disease (mouse ELISA); type: in vivo
# Procedure: In addition, the blood insulin level was analyzed simultaneously with the glucose tolerance test for the mouse model of diabetes mellitus disease (FIG. 88).
# Specifically, after 0, 15, 30, 60, 90, 120 and 180 minutes, blood was collected from the orbital veins of mice, and the insulin level in plasma was analyzed using mouse ELISA.
# [15] = target: T8, GPR39
# Procedure: Specifically, the fibroblast cell line CV-1 (1×10^5 cells/ml, Korea Cell Line Bank) was cultured in a 96 well cell culture plate for 24 hours, and then treated with GPR39 inserted into adenovirus and SRE (serum response element) luciferase at 50 MOI (multiplicity of infection) and 25 MOI virus for 3 hours, respectively, and then cultured for 24 hours.
# [16] = HKFY-34 concentration 10 μM or higher
compound,measurement,setting,value
"CCCCCCCC(=O)NCCCC[C@H](NC(=O)[C@@H](N)Cc1cn(C(c2ccccc2)c2ccccc2)cn1)C(=O)N[C@H](Cc1ccc(C)cc1)C(=O)N[C@@H](Cc1ccc(O)cc1)C(=O)O [HKFY-34, ((R)-2-((S)-2-((S)-2-amino-3-(1-benzhydryl-1H-imidazol-4-yl)propanamido)-6-octanamidohexanamido)-3-(p-tolyl)propanoyl)-L-tyrosine]",lipolytic ability,[1]; [16],significantly increased
same,lipolytic ability,"[1]; by concentration, FIG. 84",increased in a concentration dependent manner
same,mRNA expression of Ins2,[2]; GPR39 siRNA treated group,hardly achieved
same,mRNA expression of Irs2,[2]; GPR39 siRNA treated group,hardly achieved
same,mRNA expression level of Ins2,"[2]; RT-PCR, FIG. 77",increased
same,mRNA expression level of Irs2,"[2]; RT-PCR, FIG. 77",increased
same,lipolytic ability,[3]; [16],significantly increased
same,lipolytic ability,"[3]; by concentration, FIG. 84",increased in a concentration dependent manner
same,expression of pERK compared to ERK,[4],increased
same,expression of pPKA compared to PKA,[4],increased
same,activity for GHSR,[5],very low
same,activity for NTSR2,[6],very low
same,activity for NMU1,[7],very low
same,activity for MTLR,[8],very low
same,activity for NTSR1,[9],very low
same,activity for TRHR,[10],very low
same,activity for NMU2,[11],very low
same,Ca2+ influx assay ECmax (-fold induction over basal),[12],2.4 ± 4.59 -fold induction over basal
same,EC50,[12]; read-out: Ca2+ influx assay EC50,2.7 ± 0.5 nM
same,mRNA expression of ATGL,[13],increased to a degree similar to that of isoproterenol
same,mRNA expression of HSL,[13],increased to a degree similar to that of isoproterenol
same,mRNA expression of Perilipin A,[13],increased to a degree similar to that of isoproterenol
same,insulin secretion (plasma insulin level),"[14]; db/db mice, 0.5, 1, 5 and 10 mg/kg subcutaneously",increased in a concentration dependent manner
same,insulin secretion level,"[14]; db/db mice, 5 and 10 mg/kg",significantly increased
same,ECmax (-fold induction over basal),[15],22.39 ± 4.59 -fold induction over basal
same,Reporter gene assay ECmax (-fold induction over basal),[15],22.39 ± 4.59 -fold induction over basal
